From patent US9259412B2, “Composition of the treatment of vascular diseases or KCa3.1 channel-mediated diseases comprising modafinil or derivatives thereof” (EWHA UNIVERSITY—INDUSTRY COLLABORATION FOUNDATION, priority 2011, dated 2016)
Read-outs that look alike come from different tables or passages of the source.

Columns and labels:
KCa3.1 channel [1] = assay: Western blotting of KCa3.1 channel phosphorylation in NIH-3T3 cells; assay type: cell-based
Method: After the treatment, cells were washed once in ice-cold phosphate buffered saline (PBS) and lysed in protein extraction buffer containing protease inhibitor cocktail. Protein concentration in the supernatant was determined by Bradford protein assay. For Western blot analysis, 30 μg of protein was subjected to SDS-PAGE, and proteins were then transferred to a nitrocellulose membrane. Membranes were blocked for 1 hour with TBST (10 mM Tris-HCl, 150 mM NaCl, and 1% (v/v) Tween-20, pH 7.6) containing 5% bovine serum albumin (BSA) at room temperature. The blots were incubated for 3 hours with rabbit anti-P-PKA substrate antibody followed by incubation with horseradish peroxidase-conjugated secondary antibodies for 1 hour. Bands were visualized by chemiluminescence. Data collection and processing were performed using a luminescent image analyzer LAS-3000 and IMAGE GAUSE software (Fuji Film, Japan).

NIH-3T3 fibroblasts = assay: Measurement of intracellular cAMP in NIH-3T3 fibroblasts; assay type: cell-based; conditions: for intracellular cAMP concentration: NIH-3T3 cells
Method: Meanwhile, NIH-3T3 fibroblasts were used to verify the effect on KCa3.1 mediated diseases. NIH-3T3 fibroblasts (CRL-2795; American Type Culture Collection, VA, USA) were maintained in the following manner. Cells were cultivated as a monolayer in Dulbecco's Modified Eagle Medium (DMEM, Hyclone, Logan, Utah, USA) added with 10% fetal bovine serum (FBS), 100 units/ml penicillin, and 100 μg/ml streptomycin. All cells were maintained at 37° C. in humidified condition under 5% CO2. Media were changed twice weekly, and cultures were passaged at a dilution of 1:5 weekly. The medium was then removed and replaced with fresh medium, and the cells were maintained for the time periods indicated.
NIH-3T3 fibroblasts were incubated with modafinil for 3 minutes within incomplete media. The concentration of cAMP (adenosine 3′,5′-cyclic monophosphate) from lysate was determined in each sample using a Parameter cAMP assay kit (R&D systems) according to the manufacturer's instructions.

[2] = system: rat pulmonary arterial rings; assay: Contraction measurement on isolated rat pulmonary arterial rings; conditions: for effect on vascular smooth muscle contraction: norepinephrine (0.1 μM)-induced contraction of rat pulmonary artery; for IC50: Rattus norvegicus
Method: (§1) Experimental animals were used to examine the effect of modafinil on relaxation of contracted blood vessels. Five to six-month-old mice or rats were anaesthetized by an intraperitoneal injection of pentobarbital sodium (50 mg/kg, weight). The mouse thoracic aorta and rat pulmonary artery were dissected out and cut into rings of about 3 mm. Mechanical responses were recorded from the ring segments using a home-made myograph. Each ring was threaded with two strands of tungsten wire (120 μm in diameter). One wire was anchored in the organ bath chamber (1 ml) and the other was connected to a mechano-transducer (Grass, FT-03) mounted on a three dimensional manipulator. The muscle chamber was perfused at a flow rate of 2.5 ml/minute with oxygenated (95% O2/5% CO2) Krebs/Ringer bicarbonate solution with a peristaltic pump. The composition (unit: mM) of the Krebs solution was as follows: NaCl 118.3, KCl 4.7, MgCl2 1.2, KH2PO4 1.22, CaCl2 2.5, NaHCO3 25.0, glucose 11.1, pH 7.4. Endothelial cells were removed by gentle rubbing with a cotton ball and NO production in endothelial cells was inhibited by pretreating with NG-nitro-1-arginine methyl ester (l-NAME). Rings were pre-contracted with 0.1 μM norepinephrine or 30 mM K+.
Since increase in intracellular cAMP in vascular smooth muscle cells activates PKA and phosphorylates myosin light chain active enzyme to relax vascular smooth muscles, the present inventors examined whether modafinil relaxes vascular smooth muscles. Mouse aortic rings or rat pulmonary arterial rings were contracted by norepinephrine (0.1 μM). When the contraction reached a steady-state, modafinil was applied. With the application, the contracted mouse aortic ring (FIGS. 3A and 3B) or rat pulmonary arterial ring (FIGS. 3C and 3D) was relaxed in a concentration-dependent manner. […] When rat pulmonary artery was contracted by K+ (30 mM) of a high concentration, modafinil relaxed the contracted artery in a concentration-dependent manner (FIG. 3E). When the concentration-dependent reaction of rat pulmonary artery was fitted to Hill's equation, the IC50 of modafinil was determined to be 10.5±0.4 nM (FIG. 3F).

KCa3.1 channel [3] = biological target: T1, KCa3.1 channel (Mus musculus, UniProt O89109); assay: Whole-cell patch-clamp of KCa3.1 currents in NIH-3T3 fibroblasts; assay type: cell-based
T1 construct: cells which were not exposed to modafinil or forskolin were immunoblotted by anti-KCa3.1 antibody to confirm the presence of KCa3.1 channels; endogenous in cells; host or cells: NIH-3T3 fibroblasts
T1 sequence (O89109 whole entry): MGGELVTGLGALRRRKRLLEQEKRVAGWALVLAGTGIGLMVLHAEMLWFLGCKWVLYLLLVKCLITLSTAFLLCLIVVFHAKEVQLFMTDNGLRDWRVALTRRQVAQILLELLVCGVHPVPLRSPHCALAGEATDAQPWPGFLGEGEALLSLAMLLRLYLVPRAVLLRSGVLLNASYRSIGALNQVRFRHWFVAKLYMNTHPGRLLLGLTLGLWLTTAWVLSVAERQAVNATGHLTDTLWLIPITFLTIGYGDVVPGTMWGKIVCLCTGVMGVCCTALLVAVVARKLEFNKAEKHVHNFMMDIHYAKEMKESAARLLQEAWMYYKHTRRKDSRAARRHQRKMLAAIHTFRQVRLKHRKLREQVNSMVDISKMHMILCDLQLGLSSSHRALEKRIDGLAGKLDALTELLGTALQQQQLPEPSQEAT
Method: (§2) Electrophysiological analysis was performed according to the methods reported by Nilius and the like [Nilius et al., 1993, Pflugers Arch., 424(3-4): 285-293]. The patch-clamp technique was used in the whole-cell and excised patch configurations at room temperature. Whole-cell currents were measured using ruptured patches. Currents were monitored using an appropriate amplifier (EPC-10, HEKA, Lambrecht, Germany). In the whole cell experiment, we applied a voltage ramp from −100 mV to +100 mV with a 10 sec interval (650 ms duration) or voltage steps from a holding potential of −60 mV to potentials ranging from −100 mV to +100 mV in 20 mV increments (1 sec duration) with a 5 sec interval. Currents were recorded at a sampling rate of 1-4 kHz. Inside-out voltage clamps were performed using glass electrodes of tip resistance of 8-10 MΩ. Data were filtered at 1 KHz and stored in a computer for analysis using standard software (Axoscope 9.0, Axon Instruments, Foster City, Calif., USA). For some experiments, channel activity was expressed as the product of the number of channels times open probability (NPo), where NPo=Σ[(open time×number of open channels)/Total time of record].
(§3) The standard external solution contains the following substance within NaOH solution of pH 7.4; 150 mM NaCl, 6 mM KCl, 1.5 mM CaCl2, 1 mM MgCl2, 10 mM HEPES, and 10 mM glucoses. The osmolarity of this solution, as determined by an osmometer (Fiske, Norwood, Mass., USA), was 320±5 mOsm. In the inside-out mode, the bath solution contains 150 mM KCl, 0.5 mM MgCl2, 10 mM HEPES within KOH solution of pH 7.2, and the pipette solution contains 150 mM NaCl, 6 mM KCl, 1 mM MgCl2, 10 mM HEPES, 10 mM glucoses, 5 mM EGTA within NaOH solution of pH 7.4. Free Ca2+ concentrations in the pipette or bath solutions were adjusted to 1 μM by adding appropriate amounts of Ca2+ (calculated using CaBuf software; G. Droogmans, Leuven, ftp://ftp.cc.kuleuven.ac.be/pub/droogmans/cabuf.zip) in the presence of 5 mM EGTA.
KCa3.1 currents were activated by adding 1-ethyl-2-benzimidazolinone (1-EBIO, 100 μM) to the external solution and loading 1 μM Ca2+ via patch pipette in whole-cell clamped NIH-3T3 fibroblasts.

KCa3.1 channel [4] = biological target: T1, KCa3.1 channel; assay: Inside-out patch single channel recording of KCa3.1 channels in NIH-3T3 cells; assay type: cell-based
Method: as §2, §3
In inside-out patches, KCa3.1 channels were activated by clamping Ca2+ concentration of the bath solution to 1 μM and applying 1-EBIO. The holding potential was then changed from −70 to 50 mV (FIG. 7). The single channel currents were inhibited by TRAM-34. […] The present inventors then applied modafinil (30 or 100 nM) to the bath solution. […] The open probability was also not changed by modafinil (FIGS. 7A and 7B). A linear fit of the data between 50 to −70 mV yielded a slope conductance of 38.1 pS in the control group and 39.4 pS in the presence group of modafinil (FIG. 7C).

mouse aortic rings = assay: Contraction measurement on isolated mouse aortic rings; conditions: mouse aortic rings contracted by norepinephrine (0.1 μM), Hill's equation; read-out: IC50 of relaxation of contracted rings
Method: as §1, with “K+. […]” for “K+.”

[5] = system: mouse aortic smooth muscle cells; assay: Measurement of intracellular cAMP in cultured mouse aortic smooth muscle cells; assay type: cell-based
Method: Single smooth muscle cells (SMCs) were used to examine the effect of modafinil on vascular diseases. Single smooth muscle cells were separated from an aorta of the mouse. Three to four-month-old mice of either gender were anaesthetized with pentobarbital sodium (50 mg/kg weight) and sacrificed by cervical dislocation. Thoracic aortas were dissected out in Ca2+-free external solution and dissociated by incubation in papain (1 mg/ml) for 5 min followed by incubation in collagenase (1.5 mg/ml), bovine serum albumin (BSA; 2 mg/ml) and dithiothreitol (1 mg/ml) for 10 to 20 min in Ca2+-free external solution at 37° C. Segments were then transferred to fresh Ca2+-free external solution, and single mouse SMCs were dispersed with gentle agitation using a glass pipette. Mouse aortic SMCs were cultivated in Dulbecco's Modified Eagle Medium (DMEM) containing 10% fetal bovine serum (FBS) plus 1% minimum essential amino acids (Life Technologies). Cell culture was maintained at 37° C. in fully humidified air with 5% CO2.
Cultured mouse aortic SMCs were incubated with modafinil for 3 minutes within incomplete media. The concentration of cAMP (adenosine 3″,5″-cyclic monophosphate) from lysate was determined in each sample using a Parameter cAMP assay kit (R&D Systems) according to the manufacturer's instructions.

[6] = currents activated by 1 μM Ca2+ and 1-EBIO 100 μM
[7] = modafinil 30 or 100 nM in bath solution

O=S(=O)(NCCNC/C=C/c1ccc(Br)cc1)c1cccc2cnccc12 [H89]
effect on channel phosphorylation in the resting state and by forskolin (KCa3.1 channel [1]; NIH-3T3 cells pretreated with PKA inhibitor for 30 min): completely abolished

O=C(CSC(c1ccccc1)c1ccccc1)NCC1CCCO1 (centres unmarked) [M006, 2-(benzhydrylthio)-N-((tetrahydrofuran-2-yl)methyl)acetamide]
intracellular cAMP concentration (NIH-3T3 fibroblasts): increased the intracellular cAMP concentration in a concentration-dependent manner | effect on vascular smooth muscle contraction [2]: relaxed | effect on KCa3.1 currents (KCa3.1 channel [3]; [6]): inhibited

O=C(CSC(c1ccccc1)c1ccccc1)Nc1ccccc1 [M008, 2-(benzhydrylthio)-N-phenylacetamide]
intracellular cAMP concentration (NIH-3T3 fibroblasts): increased the intracellular cAMP concentration in a concentration-dependent manner | effect on vascular smooth muscle contraction [2]: relaxed | effect on KCa3.1 currents (KCa3.1 channel [3]; [6]): inhibited

CNC(=O)C[S+]([O-])C(c1ccccc1)c1ccccc1 (centres unmarked) [M015, 2-(benzhydrylsulfinyl)-N-methylacetamide]
intracellular cAMP concentration (NIH-3T3 fibroblasts): increased the intracellular cAMP concentration in a concentration-dependent manner | effect on vascular smooth muscle contraction [2]: relaxed | effect on KCa3.1 currents (KCa3.1 channel [3]; [6]): inhibited

O=C(C[S+]([O-])C(c1ccccc1)c1ccccc1)NCC1CCCO1 (centres unmarked) [M020, 2-(benzhydrylsulfinyl)-N-((tetrahydrofuran-2-yl)methyl) acetamide]
intracellular cAMP concentration (NIH-3T3 fibroblasts): increased the intracellular cAMP concentration in a concentration-dependent manner | effect on vascular smooth muscle contraction [2]: relaxed | effect on KCa3.1 currents (KCa3.1 channel [3]; [6]): inhibited

Clc1ccccc1C(c1ccccc1)(c1ccccc1)n1cccn1 [TRAM-34]
effect on KCa3.1 currents (KCa3.1 channel [3]; [6]): inhibited | effect on single channel currents (KCa3.1 channel [4]; activated by 1 μM Ca2+ and 1-EBIO): inhibited

CC#CCC(C)[C@H](O)/C=C/[C@@H]1[C@H]2C/C(=C/CCCC(=O)O)C[C@H]2C[C@H]1O (some centres unmarked) [iloprost]
intracellular cAMP concentration (NIH-3T3 fibroblasts): increased cAMP concentration | IC50 ([2]; read-out: IC50 of inhibition of rat pulmonary arterial contraction): 39.4 ± 5.1 nM

NC(=O)C[S+]([O-])C(c1ccccc1)c1ccccc1 (centres unmarked) [modafinil, 2-(benzhydrylsulfinyl) acetamide]
concentration of cAMP compared to treating the cell with 10 μM of forskolin (NIH-3T3 fibroblasts; NIH-3T3 cell, 1 μM of modafinil): 2 times | intracellular cAMP concentration (NIH-3T3 fibroblasts): increased in a concentration-dependent manner | IC50 (mouse aortic rings): 11.9 ± 0.3 nM | IC50 ([2]; read-out: IC50 of relaxation of contracted artery): 10.5 ± 0.4 nM | IC50 ([2]; read-out: IC50 of relaxation of contracted rings): 10.1 ± 0.1 nM | intracellular cAMP concentration ([5]; cultured mouse aortic SMCs exposed for 3 minutes): increased in a concentration-dependent manner | concentration from which intracellular cAMP concentration significantly increased ([5]; primary cultured mouse aortic smooth muscle cells, 3 min, p<0.01): 10 nM | IC50 (KCa3.1 channel [3]): 6.8 ± 0.7 nM | effect on KCa3.1 currents in cells pretreated by H89 (KCa3.1 channel [3]; H89 (10 μM) pretreatment): not inhibited | effect on KCa3.1 currents with PKI14-22 in the pipette solution (KCa3.1 channel [3]; PKI14-22 (10 μM) in pipette solution): not affected | concentration for maximal inhibition of KCa3.1 currents (KCa3.1 channel [3]; [6]): 100.0 ± 5.7 nM | KCa3.1 channel phosphorylation (KCa3.1 channel [1]; NIH-3T3 cells, treatment for 5 min): increased KCa3.1 phosphorylation in a concentration-dependent manner | slope conductance of single KCa3.1 channel (KCa3.1 channel [4]; linear fit between 50 to -70 mV, in the presence of modafinil): 39.4 pS | open probability of KCa3.1 channels (KCa3.1 channel [4]; [7]): not changed | single channel activity of KCa3.1 channels (KCa3.1 channel [4]; [7]): did not change
